Measured values published in US10982219B2, “Guayule with increased rubber production and yield” (The United States of America, as represented by the …, priority 2017, dated 2021).

Columns and labels:
Format in all cases: in vivo, Parthenium argentatum
PaAos = experiment: qRT-PCR of PaAOS in SA treated soil-grown guayule; conditions: 10 nM SA to soil twice weekly for two months
Experimental: (§1) The effect of SA on guayule PaAos gene expression is tested in wild-type guayule G7-11 plants. SA is added to the growth medium (K0) in tissue culture at different concentrations, 0 nM, 10 nM and 100 nM. Shoot tips are transferred to the growth media, and plants are grown for 8 weeks. The rubber content of the plant tissues is determined by standard procedures (ASE, see Example 3 supra). […] The effect of exogenous 10 nM SA on one month old guayule plants grown in the soil under greenhouse conditions is also examined.

guayule G7-11 plants [1] = experiment: Exogenous SA applied to soil of greenhouse guayule, growth and rubber content; conditions: 50 ml of 10 nM SA to soil twice weekly for two months
Experimental: as §1

guayule G7-11 plants [2] = experiment: Exogenous SA in tissue culture growth medium, rubber content by ASE; conditions: 8 weeks, versus 0 nM
Experimental: as §1

Question: For `O=C(O)c1ccccc1O` [SA, salicylic acid], which “PaAOS expression (qRT-PCR)” value (PaAos) is on record?
Answer: Its value is “low expression pattern”.

Question: And the “height and primary stem diameter” value (guayule G7-11 plants [1]; versus mock or water treated)?
Answer: The value was “significant differences in the height and primary stem diameter”.

Question: And the rubber content (guayule G7-11 plants [1]; versus mock treated)?
Answer: Its rubber content is “slightly increases and significantly differs”.

Question: And the “amount of rubber produced” value (guayule G7-11 plants [2]; 10 nM SA in growth medium)?
Answer: Its value is “increases the amount of rubber produced in a significant manner”.

Question: What about the “amount of rubber produced” value (guayule G7-11 plants [2]; 100 nM SA in growth medium) of the same compound?
Answer: Its value is “increases the amount of rubber produced in a significant manner”.
